Here are results for one compound from patent publication US20060182792A1, “Liposome-forming compositions” (priority 2002, published 2006).

Each structure is given as a SMILES string.

This series is described as follows: Absolute oral bioavailability of liposomally administered octreotide per os in rats. As to the method:
Wistar rats (with approximately 250 g body weight) fast for 12 hours and receive 0.5 ml of the aqueous mixture of the composition according to the invention by pharyngeal probe so that the administered amount of octreotide is 100 μg per animal. As a comparative test 100 μg of free octreotide was dissolved in 0.5 ml of PBS and administered via pharyngeal probe. Blood samples were taken after 30, 60, 120 and 240 min. retroorbitally. An i.v. injection of 2 μg of octreotide per animal provided a control in order to determine the absolute bioavailability. […] Six animals were tested for each formulation.

For `C[C@@H](O)[C@@H]1NC(=O)[C@H](CCCCN)NC(=O)[C@@H](Cc2c[nH]c3ccccc23)NC(=O)[C@H](Cc2ccccc2)NC(=O)[C@@H](NC(=O)[C@H](N)Cc2ccccc2)CSSC[C@@H](C(=O)N[C@H](CO)[C@@H](C)O)NC1=O` [Free, octreotide], under “Wistar, rat, in vivo, 100 μg per animal”, the bioavailability turned out to be 0.5%. The “Gain factor of the absolute bioavailability vs free octreotide” value (free octreotide, oral, 0.1 mg/animal, lipid/peptide 0) stood at 1.
